Tested on: KRAS-mutant PDC tumor spheroid with HUVEC/MSC, viability
Assay: Anticancer human tumor 327498-153-R-J2-PDC patient-derived uterine carcinosarcoma cell line growth inhibition [KRAS2]
Details: for IC50: curve of first compound; for viability, T/C: stronger effect = lower value
Text: Multicellular complex tumor spheroid response to RAS pathway inhibitors in combination with a targeted agents in patient-derived cell lines with oncogenic KRAS variants from multiple cancer types
A high-throughput screen of multi-cell type tumor spheroids was designed to identify active combinations of targeted small molecules and KRAS pathway inhibitors. Complex spheroids include a stromal component modeled by human endothelial cells (HUVEC) and fibroblasts modeled by human mesenchymal stem cells (MSCs). The concentration ranges selected for each drug and investigational agent were based upon clinically achievable concentrations if the clinical Cmax of the agent was known.
Compounds. The drugs and investigational agents: BI-3406 (NSC825286), BAY-293 (NSC824723), batoprotafib (TNO155; NSC825523), sotorasib (AMG 510; NSC818433), MRTX1257 (NSC819558), elimusertib (BAY 1895344; NSC800525), molibresib (GSK525762; NSC774829), temuterkib (LY3214996; NSC803410), venetoclax (NSC766270), alisertib (NSC759677), olaparib (NSC753686), talazoparib (NSC767125), erdafitinib (NSC781556), ipatasertib (NSC767898), cabozantinib (NSC761068), nintedanib (NSC756659), abemaciclib (NSC768073), docetaxel (NSC628503), trametinib (NSC758246), and sapanisertib (NSC764658) were obtained from the National Cancer Institute (NCI) Developmental Therapeutics Program Chemical Repository. The FDA-approved anticancer drug set is available from the Developmental Therapeutics Program. […] The stock solutions were prepared in dimethyl sulfoxide (DMSO, Sigma-Aldrich, St. Louis, MO, cat. D2650) at 800-fold the tested concentration and stored at -70 degrees C prior to their use. All drugs and investigational agents were tested over a range starting from a high concentration at or near the clinical Cmax and decreasing in half-log increments. If the clinical Cmax for an agent had not been determined, the highest concentration tested was 10 microM.
Cell Culture. All cells were maintained in an incubator at 37 degrees C and 5% CO2 with 95% humidity. The PDC lines were cultured according to standard operating procedures established by the NCI PDMR (https://pdmr.cancer.gov/sops/default.htm). Briefly, all PDCs were thawed and cultured in Matrigel-coated flasks prepared with a working solution of 1X Ham's F-12 nutrient mix, without supplementation (Invitrogen, Waltham, MA, cat. 11765054), 100 U/mL penicillin-streptomycin (Invitrogen, cat. 15140122), and 2.5% Matrigel (Corning Inc., Corning, NY, cat. 354248) for the first three passages. All PDCs were cultured in complete DMEM/F-12 media containing advanced DMEM/F-12 (Invitrogen, cat. 12634028), 4.9% defined fetal bovine serum, heat inactivated (HyClone Laboratories Inc., Logan, UT, cat. SH30070.03HI), 389 ng/mL hydrocortisone (Sigma-Aldrich, cat. H4001), 9.7 ng/mL human EGF recombinant protein (Invitrogen, cat. PHG0313), 23.4 microg/mL adenine (Sigma-Aldrich, cat. A2786), 97.3 U/mL penicillin-streptomycin (Invitrogen, cat. 15140122), 1.9 mM L-glutamine (Invitrogen, cat. 25030081), and 9.7 microM Y-27632 dihydrochloride (Tocris Bioscience, Bristol, United Kingdom, cat. 1254). The PDCs were cultured in complete DMEM/F12 media without 9.7 microM Y-27632 dihydrochloride for at least two passages prior to the screen. The established cell line HOP-62 was cultured in RPMI 1640 medium, HEPES (Invitrogen, cat. 22400105) with 10% defined fetal bovine serum (HyClone Laboratories Inc., cat. SH30070.03) and 2 mM L-glutamine (Invitrogen, cat. 25030081). The pooled donor HUVEC were cultured in endothelial cell growth medium 2 (PromoCell, Heidelberg, Germany, cat. C-22011) and the hMSC were cultured in mesenchymal stem cell growth medium 2 (PromoCell, cat. C-28009). For all experiments, HUVEC and hMSC were used at passages </=5, while the malignant cell lines were used at passages </=15. […]

[1] = second compound 0.1 µM, first compound 0.0316 µM
[2] = second compound 0.1 µM, first compound 0.1 µM
[3] = second compound 0.316 µM, first compound 0.0316 µM
[4] = second compound 0.316 µM, first compound 0.1 µM
[5] = second compound 1 µM, first compound 0.0316 µM
[6] = second compound 1 µM, first compound 0.1 µM
[7] = second compound 3.16 µM, first compound 0.0316 µM
[8] = second compound 3.16 µM, first compound 0.1 µM
[9] = second compound 10 µM, first compound 0.0316 µM
[10] = second compound 10 µM, first compound 0.1 µM
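Also: spheroids exposed to agents for seven days before reading.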
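For viability, T/C in this document: 100% = DMSO vehicle wells so lower means fewer viable cells.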

Q: Which IC50 (second compound 0.1 µM) does the source give for CC1(C)CCC(CN2CCN(c3ccc(C(=O)NS(=O)(=O)c4ccc(NCC5CCOCC5)c([N+](=O)[O-])c4)c(Oc4cnc5[nH]ccc5c4)c3)CC2)=C(c2ccc(Cl)cc2)C1 + C=CC(=O)N1CCN(c2nc(=O)n(-c3c(C)ccnc3C(C)C)c3nc(-c4c(O)cccc4F)c(F)cc23)C(C)C1 here?
A: 1300 nM

Q: What about the IC50 (second compound 0.316 µM) of the same compound?
A: 1740 nM

Q: And the IC50 (second compound 1 µM)?
A: 1580 nM

Q: And the IC50 (second compound 3.16 µM)?
A: 1210 nM

Q: What about the IC50 (second compound 10 µM) of the same compound?
A: < 31.6 nM

Q: What about the viability, T/C [1] of the same compound?
A: 65.7%

Q: And the viability, T/C [2]?
A: 61.1%

Q: And the viability, T/C (second compound 0.1 µM, first compound 0.316 µM)?
A: 54%

Q: And the viability, T/C (second compound 0.1 µM, first compound 1 µM)?
A: 57.4%

Q: And the viability, T/C (second compound 0.1 µM, first compound 3.16 µM)?
A: 36.5%

Q: What about the viability, T/C (second compound 0.1 µM, first compound 10 µM) of the same compound?
A: 1.21%

Q: What about the viability, T/C [3] of the same compound?
A: 57%

Q: And the viability, T/C [4]?
A: 54.5%

Q: What about the viability, T/C (second compound 0.316 µM, first compound 0.316 µM) of the same compound?
A: 58.1%

Q: And the viability, T/C (second compound 0.316 µM, first compound 1 µM)?
A: 57.5%

Q: And the viability, T/C (second compound 0.316 µM, first compound 3.16 µM)?
A: 42.7%

Q: And the viability, T/C (second compound 0.316 µM, first compound 10 µM)?
A: 6.41%

Q: And the viability, T/C [5]?
A: 60.7%

Q: And the viability, T/C [6]?
A: 55.2%

Q: What about the viability, T/C (second compound 1 µM, first compound 0.316 µM) of the same compound?
A: 57.4%

Q: And the viability, T/C (second compound 1 µM, first compound 1 µM)?
A: 52.2%

Q: What about the viability, T/C (second compound 1 µM, first compound 3.16 µM) of the same compound?
A: 44.3%

Q: And the viability, T/C (second compound 1 µM, first compound 10 µM)?
A: 1.34%

Q: What about the viability, T/C [7] of the same compound?
A: 52.6%

Q: And the viability, T/C [8]?
A: 53.5%

Q: And the viability, T/C (second compound 3.16 µM, first compound 0.316 µM)?
A: 53.2%

Q: And the viability, T/C (second compound 3.16 µM, first compound 1 µM)?
A: 52.6%

Q: And the viability, T/C (second compound 3.16 µM, first compound 3.16 µM)?
A: 37.4%

Q: What about the viability, T/C (second compound 3.16 µM, first compound 10 µM) of the same compound?
A: 0.58%

Q: What about the viability, T/C [9] of the same compound?
A: 43.2%

Q: What about the viability, T/C [10] of the same compound?
A: 41.6%

Q: And the viability, T/C (second compound 10 µM, first compound 0.316 µM)?
A: 37.8%

Q: And the viability, T/C (second compound 10 µM, first compound 1 µM)?
A: 46.5%

Q: And the viability, T/C (second compound 10 µM, first compound 3.16 µM)?
A: 10.5%

Q: And the viability, T/C (second compound 10 µM, first compound 10 µM)?
A: 2.01%

Q: Cn1ncnc1[C@H]1c2n[nH]c(=O)c3cc(F)cc(c23)N[C@@H]1c1ccc(F)cc1 + C=CC(=O)N1CCN(c2nc(=O)n(-c3c(C)ccnc3C(C)C)c3nc(-c4c(O)cccc4F)c(F)cc23)C(C)C1 was tested. Which IC50 (second compound 0.1 µM) did it give?
A: 3.87 nM

Q: And the IC50 (second compound 0.316 µM)?
A: 3.46 nM

Q: What about the IC50 (second compound 1 µM) of the same compound?
A: 1.97 nM

Q: And the IC50 (second compound 3.16 µM)?
A: 1.74 nM

Q: And the IC50 (second compound 10 µM)?
A: < 0.316 nM

Q: What about the viability, T/C (second compound 0.1 µM, first compound 0.000316 µM) of the same compound?
A: 63.7%

Q: And the viability, T/C (second compound 0.1 µM, first compound 0.001 µM)?
A: 58.6%

Q: What about the viability, T/C (second compound 0.1 µM, first compound 0.00316 µM) of the same compound?
A: 54%

Q: What about the viability, T/C (second compound 0.1 µM, first compound 0.01 µM) of the same compound?
A: 36.1%

Q: And the viability, T/C [1]?
A: 22.2%

Q: And the viability, T/C [2]?
A: 15.6%

Q: What about the viability, T/C (second compound 0.316 µM, first compound 0.000316 µM) of the same compound?
A: 54.8%

Q: What about the viability, T/C (second compound 0.316 µM, first compound 0.001 µM) of the same compound?
A: 60.3%

Q: And the viability, T/C (second compound 0.316 µM, first compound 0.00316 µM)?
A: 49.1%

Q: And the viability, T/C (second compound 0.316 µM, first compound 0.01 µM)?
A: 36.9%

Q: What about the viability, T/C [3] of the same compound?
A: 19.8%

Q: What about the viability, T/C [4] of the same compound?
A: 15.4%

Q: What about the viability, T/C (second compound 1 µM, first compound 0.000316 µM) of the same compound?
A: 59%

Q: And the viability, T/C (second compound 1 µM, first compound 0.001 µM)?
A: 59.5%

Q: And the viability, T/C (second compound 1 µM, first compound 0.00316 µM)?
A: 42.7%

Q: And the viability, T/C (second compound 1 µM, first compound 0.01 µM)?
A: 34.1%

Q: And the viability, T/C [5]?
A: 21%

Q: And the viability, T/C [6]?
A: 15.9%

Q: What about the viability, T/C (second compound 3.16 µM, first compound 0.000316 µM) of the same compound?
A: 55.9%

Q: What about the viability, T/C (second compound 3.16 µM, first compound 0.001 µM) of the same compound?
A: 53%

Q: And the viability, T/C (second compound 3.16 µM, first compound 0.00316 µM)?
A: 47%

Q: And the viability, T/C (second compound 3.16 µM, first compound 0.01 µM)?
A: 32.4%

Q: What about the viability, T/C [7] of the same compound?
A: 21.7%

Q: And the viability, T/C [8]?
A: 14.8%

Q: And the viability, T/C (second compound 10 µM, first compound 0.000316 µM)?
A: 39.9%

Q: And the viability, T/C (second compound 10 µM, first compound 0.001 µM)?
A: 45.1%

Q: And the viability, T/C (second compound 10 µM, first compound 0.00316 µM)?
A: 34.1%

Q: And the viability, T/C (second compound 10 µM, first compound 0.01 µM)?
A: 20.5%

Q: What about the viability, T/C [9] of the same compound?
A: 16.9%

Q: And the viability, T/C [10]?
A: 13.4%

Reference: PubChem BioAssay AID1963867 (Molecular Pharmacology Branch, DTP, NCI, 2024)
